Test results from patent publication EP4800020A2, “ZWITTERIONIC REAGENTS” (Siemens Healthcare Diagnostics, Inc., priority 2010, dated 2011).
Peptide text beside a SMILES is read from it. * marks the point of attachment. X1 = C[N+](C)(CCCC(=O)*)CCCS(=O)(=O)[O-]

Test: Aqueous solubility of zwitterion-modified hydrophobic peptides in de-ionized water
Assay type: physicochemical
Settings: concentration giving a clear solution, peptide labeled at the α-amino group with Z3-PFP
Method: Specifically, four representative hydrophobic peptides, penta(phenylalanine), a tetrapeptide with the sequence Phe-Gly-Gly-Phe, penta(leucine) and penta(isoleucine) were all labeled at the α-amino group with the amine-reactive, zwitterionic reagent Z3-PFP (compound 2c in Figure 1). One such labeling experiment is illustrated in Example 12. The zwitterion-modified peptides were purified by chromatography and their aqueous solubility was assessed by dissolving them in de-ionized water at concentrations that gave clear homogenous solutions. […] Penta(phenylalanine) modified by the zwitterion-containing compound Z3-PFP, compound 2c, dissolved in water and provided a clear solution at a concentration of ~0.5 mM.

solubility [µM] | Compound
≥ 500 | C[N+](C)(CCCC(=O)N[C@@H](Cc1ccccc1)C(=O)N[C@@H](Cc1ccccc1)C(=O)N[C@@H](Cc1ccccc1)C(=O)N[C@@H](Cc1ccccc1)C(=O)N[C@@H](Cc1ccccc1)C(=O)O)CCCS(=O)(=O)[O-] (X1-FFFFF-OH)
≥ 3000 | C[N+](C)(CCCC(=O)N[C@@H](Cc1ccccc1)C(=O)NCC(=O)NCC(=O)N[C@@H](Cc1ccccc1)C(=O)O)CCCS(=O)(=O)[O-] (X1-FGGF-OH)
≥ 100 | CC[C@H](C)[C@H](NC(=O)[C@@H](NC(=O)[C@@H](NC(=O)[C@@H](NC(=O)[C@@H](NC(=O)CCC[N+](C)(C)CCCS(=O)(=O)[O-])[C@@H](C)CC)[C@@H](C)CC)[C@@H](C)CC)[C@@H](C)CC)C(=O)O (X1-IIIII-OH)
≥ 100 | CC(C)C[C@H](NC(=O)[C@H](CC(C)C)NC(=O)[C@H](CC(C)C)NC(=O)[C@H](CC(C)C)NC(=O)[C@H](CC(C)C)NC(=O)CCC[N+](C)(C)CCCS(=O)(=O)[O-])C(=O)O (X1-LLLLL-OH)
